Assay [1] is described as follows: In Vitro Assay: In general, Trex HEK293 cells were stably transfected with an inducible expression vector containing the full-length cDNA coding for the desired human sodium channel α-subunit and with an expression vector containing full length cDNA coding for the β1-subunit. Sodium channel expressing cell lines were induced with tetracycline (1 μg/mL) and plated on 384-well PDL-coated plates at ….

Assay in assay [2]: as above
The source holds these as a separate data set.

A value given as a limit tells only on which side of the number the result lay.

This note sets out measurements from ChEMBL document CHEMBL5727912, “Benzenesulfonamide compounds and their use as therapeutic agents” (2020).

On to `C[C@@H](c1c(F)ccc(F)c1CNc1cc(F)c(S(=O)(=O)Nc2cscn2)c(F)c1)N1C2CCC1CC2` (single isomer, unassigned), for which the IC50 in assay [1] and in assay [2] was above 30 µM throughout.

`C[C@H](c1c(F)ccc(F)c1CNc1cc(F)c(S(=O)(=O)Nc2cscn2)c(F)c1)N1C2CCC1CC2` (single isomer, unassigned): the IC50 in assay [1] and in assay [2] was above 30 µM in each case.
